“Also recorded” adds a separate entry of the source.
Legend:
[1] = test system: NF-AT (Nuclear Factor of Activated T Cells) protein; test: NF-AT transcriptional activity, β-galactosidase reporter in Jurkat cells induced by A23187 and PMA; format: cell-based, human
Protocol: Cells (3×10^6 cells/ml) were incubated with 10 μM compound according to Example 2 in RPMI-1640 medium (pH=7.4) for 20 min at 37° C. Following this, incubation lasted for an additional 4 h in the presence of 0.5 μM A23187 and 50 ng/ml PMA (12-O-tetradecanoylphorbol-13-acetate). Induced effects can be determined by the β-galactosidase activity of cells treated with the compound according to Example 2 and untreated cells as it catalyzes the transformation of FDG (fluorescein di-β-D-galactopyranoside) into fluorescein. Reading of results was carried out with a SpectraFluor Plus plate reader. Decrease of β-galactosidase activity was compared to the effect of 1 μM cyclosporine A which was served as a positive control.

human caspase 3 enzyme = biological target: T1, human caspase 3 enzyme (Homo sapiens, UniProt P42574); test: Caspase 3 peptidase activity, Ac-DEVD-AMC substrate, fluorescence; format: biochemical
T1 construct: host or cells: E. coli
T1 sequence (P42574 29-175 limits assumed): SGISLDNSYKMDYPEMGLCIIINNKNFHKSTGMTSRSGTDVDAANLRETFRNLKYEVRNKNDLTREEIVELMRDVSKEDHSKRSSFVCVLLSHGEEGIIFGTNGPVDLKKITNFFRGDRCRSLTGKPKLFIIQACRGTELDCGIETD
T1 sequence (P42574 176-277 limits assumed): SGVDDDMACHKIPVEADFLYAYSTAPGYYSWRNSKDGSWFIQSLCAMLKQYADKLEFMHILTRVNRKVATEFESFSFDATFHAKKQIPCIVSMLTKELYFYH
Protocol: Throughout the experiments, human caspase 3 enzyme produced in E. coli was used as previously described (Mittl PRE, Marco S D, Krebs J F, Karanewsky D S, Priestle J P, Tomaselli K J and Grutter M G (1997) Structure of Recombinant Human CPP32 in Complex with the Tetrapeptide Acetyl-Asp-Val-Ala-Asp Fluoromethyl Ketone. J Biol Chem. 272: 6539-6547). […] After the addition of […] Ac-DEVD-AMC substrate, the reaction ran for 60 min. The amount of generated AMC (7-amino-4-methylcoumarine), which gives information about the enzyme activity, was detected by fluorescence at 360/465 nm.

HMOX-1 gene = test: Gene expression in primary astrocytes by qRT-PCR; format: cell-based, rat; settings: 3 h, Example 2 at 330 nM and 1000 nM, PBT2 at 1000 nM
Protocol: (§1) Pure astrocyte culture was obtained from neonatal rats according to the protocol found in literature (Protocols for Neural Cell Culture 2001, pp 117-127. ch 9. Ruth Cole, Jean de Vellis. Preparation of Astrocyte, Oligodendrocyte, and Microglia Cultures from Primary Rat Cerebral Cultures). Astrocytes (1 million) were cultured in 100 mm TC-treated culture dishes (Orange Scientific, Belgium) in an incubator set at 37° C. and 5% CO2 with humid air. The R-enantiomeric derivative according to Example 2 was added to cells in two final concentrations: 330 nM and 1000 nM. Cells were also treated with 1000 nM PBT2 which bears the basic structure of the R-enantiomer according to Example 2 (8-hydroxy-quinoline ring) but contains conformational differences and was developed for the treatment of neurodegenerative disorders (Pub. No.: WO/2004/007461). Treatments were carried out with a 100 μM DMSO-based stock solution. Control cells were treated with the same amount of DMSO without the agent. Each treatment was conducted in three separate culture dishes. After treatment, cells were incubated at 37° C. for 3 h, then the medium was removed, cells were washed with PBS and total RNA was extracted from cells with the Accuzol™ Total RNA Extraction Solution (Bioneer, Daejeon, South Korea), according to the manufacturer's protocol. cDNA transcription was carried out with the High Capacity cDNA Reverse Transcription Kit (Life Technologies, Foster City, Calif., USA). During the test, the expression of four genes (PGK1, EPO, HMOX-1, VEGF) controlled by HIF1a was determined by qRT-PCR, with HPRT gene serving as a control. Relative expression of genes in treated samples was compared to untreated controls. The PCR was conducted with a LightCycler® Nano Instrument (Roche, Budapest, Hungary) in the presence of UPL (Universal Probe Library) probes (HPRT: 95, HMOX1: 4, EPO: 16, VEGF: 1, PGK1: 66), specific primers (HPRT1: 5′-gaccggttctgtcatgtcg-3′, HPRT2: 5′-[…]-3′; HMOX1-1: 5′-[…]-3′, HMOX1-2: 5′-ctgcagctcctcaaacagc-3′; EPO1: 5′-[…]-3′, EPO2: 5′-ccttctgcacagcccatt-3′; VEGF1: 5′-[…]-3′, VEGF2: 5′-[…]-3′; PGK1-1: 5′-[…]-3′, PGK1-2: 5′-gacttggctccattgtcca-3′) in 20 μl PCR reaction volume with 20 ng cDNA template and 10 μl Lightcycler DNA Probes Master (5×) Reagent Kit (Roche) according to the following protocol: activation of enzyme at 95° C. for 10 min, 50 cycles: denaturation at 95° C. for 15 sec, hybridization and polymerization, then detection at 60° C. for 30 sec.

PGK1 gene = test: Gene expression in primary astrocytes by qRT-PCR; format: cell-based, rat; settings: in the cells
Protocol: as §1

EPO gene [2] = test: Gene expression in primary astrocytes by qRT-PCR; format: cell-based, rat; settings: 3 h, Example 2 at 330 nM and 1000 nM, PBT2 at 1000 nM
Protocol: as §1

VEGF gene = test: Gene expression in primary astrocytes by qRT-PCR; format: cell-based, rat; settings: in the cells
Protocol: as §1

EPO gene [3] = test: Erythropoietin gene expression in hippocampus and cortex of aged animals, chronic treatment, qRT-PCR; format: in vivo, mouse; settings: 18-month-old C57BL/6 female mice, 20 mg/l in drinking water for four months
Protocol: Twenty-four 18-month-old C57BL/6 female mice (Innovo Ltd., Budapest, Hungary) were divided into two groups randomly: Group 1—untreated control, Group 2—treated with the R-enantiomer according to Example 2, administered in drinking water (20 mg/l) for four months. From both groups, 10-10 mice were sacrificed by CO2 inhalation. […]
To study gene expression, total RNA was extracted from the brain tissues with Accuzol™ Total RNA Extraction Solution (Bioneer, Daejeon, South Korea), according to the manufacturer's protocol. cDNA transcription was carried out with the High Capacity cDNA Reverse Transcription Kit (Life Technologies, Foster City, Calif., USA). Expression of the gene coding for erythropoietin, the EPO gene was determined by qRT-PCR (with HPRT gene serving as a control) with the method and instrument described in Example 33. but here, mouse-specific UPL probes (HPRT: 95, EPO: 16) and primer pairs were applied (mouse HPRT1: 5′-tcctcctcagaccgctttt-3′, mouse HPRT2: 5′-[…]-3′; mouse EPO1: 5′-[…]-3′, mouse EPO2: 5′-cttctgcacaacccatcgt-3′).

Cc1ccnc(N[C@H](c2ccc(C(F)(F)F)cc2)c2ccc3cccnc3c2O)n1 [Example 2, 7-[(R)-[(4-Methylpyrimidin-2-yl)amino][4-(trifluoromethyl)phenyl]methyl]quinolin-8-ol]
inhibition of transcriptional induction regulated by NF-AT (concentration range in words) [1]: inhibits in micromolar concentration
IC50 ([1]; Homo sapiens, Jurkat cells, 0.5 μM A23187 and 50 ng/ml PMA, 4 h, read-out: half-value concentration for reduction of the transcriptional activity of NF-AT protein): 2200 nM
inhibition of caspase-3 enzyme (concentration range in words) (human caspase 3 enzyme): inhibits in micromolar concentration
reduction of the activity of caspase 3 enzyme (human caspase 3 enzyme; applied concentration of 10 μM): 74%
activation of HMOX-1 gene expression (HMOX-1 gene): capable to increase the gene activity; also recorded: caused the induction of HMOX-1 in astrocytes; also recorded: dose-dependent and robust activation
increase of PGK-1 gene activity (PGK1 gene): capable to increase the gene activity
activation of EPO gene expression (EPO gene [2]): capable to increase the gene activity; also recorded: highest inductive effect; also recorded: dose-dependent and robust activation
increase of VEGF gene activity (VEGF gene): capable to increase the gene activity
EPO gene expression in hippocampus and cortex compared to untreated control mice (EPO gene [3]): resulted increased EPO gene activity in cerebral cortex and hippocampus; also recorded: induced both hippocampal and cortical EPO expression

— patent US10287265B2, “Enantiomers of 8-hydroxyquinoline derivatives and the synthesis thereof” (AVIDIN Co. Ltd., priority 2015, dated 2019)
